This is an account of results in patent US8575156B2, “Cyclic inhibitors of 11β-hydroxysteroid dehydrogenase 1” (Vitae Pharmaceuticals, Inc., priority 2007, dated 2013).

Where two headings read alike, the source gives them in different places.

The target of this experiment is 11β-HSD1 (Homo sapiens, UniProt P28845). Nature of the experiment: biochemical. Particulars: for IC50: IC50 Range, Biological Test Example 1, microsomes from CHO cells overexpressing human 11β-HSD1; for inhibition at 0.1111 µM: read-out: Average % inhibition at 111.1 nM, Biological Test Example 1, 111.1 nM compound.
Where [1] appears, read: read-out: Average % inhibition at 100 nM, Biological Test Example 1, 100 nM.
The mark [2] stands for this setting: read-out: Average % inhibition at 100 nM, Biological Test Example 1, 100 nM compound.
The mark [3] stands for this setting: read-out: Average % inhibition at 100 nM.

11β-HSD1, sequence (P28845 whole entry): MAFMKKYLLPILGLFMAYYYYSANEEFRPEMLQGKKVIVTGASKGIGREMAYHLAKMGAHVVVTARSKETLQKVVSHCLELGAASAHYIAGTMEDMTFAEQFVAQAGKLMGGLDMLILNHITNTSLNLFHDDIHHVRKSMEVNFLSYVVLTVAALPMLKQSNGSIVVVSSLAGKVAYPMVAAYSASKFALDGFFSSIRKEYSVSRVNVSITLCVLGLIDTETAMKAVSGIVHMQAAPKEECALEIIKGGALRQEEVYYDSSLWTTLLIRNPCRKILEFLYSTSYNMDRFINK

As to `C[C@@H](c1ccccc1)N1CC[C@](CCO)(c2ccc(F)cc2)OC1=O` (single isomer, unassigned) [EXAMPLE 97 Isomer 2], the IC50 was under 100 nM and the inhibition at 0.1111 µM was 88.2%.

In the case of `CC1(c2ccccc2)CCN(c2cccc(-c3ccccc3NS(C)(=O)=O)c2)C(=O)O1` (stereo not shown) [EXAMPLE 45, N-(3′-(6-methyl-2-oxo-6-phenyl-1,3-oxazinan-3-yl)biphenyl-2-yl)methanesulfonamide], the IC50 was in the range of 100 to 1000 nM and the inhibition at 0.1111 µM amounted to 31.2%.

On to `CC1(c2ccccc2)CCN(c2nccc(-c3ccc(F)cc3)n2)C(=O)O1` (stereo not shown) [EXAMPLE 61, 3-(4-(4-fluorophenyl)pyrimidin-2-yl)-6-methyl-6-phenyl-1,3-oxazinan-2-one], for which the IC50 is 100 to 1000 nM and the inhibition at 0.1111 µM came to 17.7%.

Molecule `C[C@@H](c1cccc(Br)c1)N1CC[C@](CCCO)(c2ccc(F)cc2)OC1=O` [EXAMPLE 354, (R)-3-((S)-1-(3-bromophenyl)ethyl)-6-(4-fluorophenyl)-6-(3-hydroxypropyl)-1,3-oxazinan-2-one] registered an IC50 of under 100 nM. Also, the inhibition at 0.1 µM under setting [1] came to 95.2%.

Turning to `CC1(c2ccccc2)CCN(c2cccc(-c3ccccc3Cl)c2)C(=O)O1` (stereo not shown) [EXAMPLE 10, 3-(2′-chlorobiphenyl-3-yl)-6-methyl-6-phenyl-1,3-oxazinan-2-one], the IC50 was under 100 nM and the inhibition at 0.1111 µM was 90.5%.

As to `CC(C)C1(CCCO)CCN([C@@H](C)c2ccc(Br)cc2)C(=O)O1` (single isomer, unassigned) [EXAMPLE 200 Isomer 1], the IC50 was under 100 nM.

`C[C@@H](c1ccc(F)cc1)N1CC[C@](CCC(C)(C)O)(c2ccc(F)cc2)OC1=O` [EXAMPLE 410, (R)-6-(4-fluorophenyl)-3-((S)-1-(4-fluorophenyl)ethyl)-6-(3-hydroxy-3-methylbutyl)-1,3-oxazinan-2-one] returned an IC50 of under 100 nM. For the same molecule, the inhibition at 0.1 µM under setting [1] was 52%.

In turn, `C[C@@H](c1ccc(-c2ccc(F)cc2)cc1)N1CC[C@](CCO)(c2cccs2)OC1=O` (single isomer, unassigned) [EXAMPLE 218 Isomer 1] had an IC50 of under 100 nM. The inhibition at 0.1 µM under setting [2] was determined as 97.4%.

`C=CCCC1(c2ccc(F)cc2)CCN([C@@H](C)c2ccc(OC(F)F)cc2)C(=O)O1` (single isomer, unassigned) [EXAMPLE 323 Isomer 1] gave an IC50 of under 100 nM. Also, under setting [3], the inhibition at 0.1 µM was determined as 85.9%.

In the case of `CC1(c2ccccc2)CCN(c2cccc(Oc3ccccc3)c2)C(=O)O1` (stereo not shown) [EXAMPLE 81, 6-methyl-3-(3-phenoxyphenyl)-6-phenyl-1,3-oxazinan-2-one], the IC50 is under 100 nM and the inhibition at 0.1111 µM stood at 72.2%.

Consider `CC1(c2ccccc2)CCN(c2cccc(-c3ccc(CNS(C)(=O)=O)cc3)c2)C(=O)O1` (stereo not shown) [EXAMPLE 19, N-((3′-(6-methyl-2-oxo-6-phenyl-1,3-oxazinan-3-yl)biphenyl-4-yl)methyl)methanesulfonamide], for which the IC50 was 100 to 1000 nM and the inhibition at 0.1111 µM stood at 24%.

Turning to `C[C@@H](c1ccc(Br)cc1)N1CC[C@](CCNCCF)(c2ccc(F)cc2)OC1=O` [EXAMPLE 375, (R)-3-((S)-1-(4-bromophenyl)ethyl)-6-(2-(2-fluoroethylamino)ethyl)-6-(4-fluorophenyl)-1,3-oxazinan-2-one], the IC50 is under 100 nM. For the same molecule, under setting [1], the inhibition at 0.1 µM is 70.9%.

With `O=C1OC(CCO)(c2ccc(F)cc2)CCN1c1ccc(F)c(-c2ccc(F)cc2Cl)c1` (stereo not shown) [EXAMPLE 100, 3-(2′-chloro-4′,6-difluorobiphenyl-3-yl)-6-(4-fluorophenyl)-6-(2-hydroxyethyl)-1,3-oxazinan-2-one], the IC50 was under 100 nM and the inhibition at 0.1111 µM worked out at 93.7%.

Take `CC1(c2ccccc2)CCN(c2nccc(-c3cccc(Cl)c3)n2)C(=O)O1` (stereo not shown) [EXAMPLE 58, 3-(4-(3-chlorophenyl)pyrimidin-2-yl)-6-methyl-6-phenyl-1,3-oxazinan-2-one]: the IC50 was in the range of 100 to 1000 nM and the inhibition at 0.1111 µM came to 34.8%.

`NC(=O)CC1(c2ccccc2)CCN(c2cccc(-c3ccc(F)cc3F)c2)C(=O)O1` (stereo not shown) [EXAMPLE 76, 2-(3-(2′,4′-difluorobiphenyl-3-yl)-2-oxo-6-phenyl-1,3-oxazinan-6-yl)acetamide]: the half-maximal inhibitory concentration (IC50) is under 100 nM. For the same molecule, the inhibition at 0.1 µM under setting [2] came to 81%.

`C[C@@H](c1ccccc1F)N1CC[C@](CCCO)(c2ccc(F)cc2)OC1=O` [EXAMPLE 284, (R)-6-(4-fluorophenyl)-3-((S)-1-(2-fluorophenyl)ethyl)-6-(3-hydroxypropyl)-1,3-oxazinan-2-one] returned a half-inhibitory concentration (IC50) of under 100 nM. Further, the inhibition at 0.1 µM under setting [2] worked out at 97.7%.

Consider `C[C@@H](c1ccc(OC(F)F)cc1)N1CC[C@](CCCO)(c2ccccc2)OC1=O` [EXAMPLE 329, (R)-3-((S)-1-(4-(difluoromethoxy)phenyl)ethyl)-6-(3-hydroxypropyl)-6-phenyl-1,3-oxazinan-2-one], for which the IC50 is under 100 nM. The inhibition at 0.1 µM under setting [1] came out at 99.8%.

With `CC(O)CC1(C(C)C)CCN([C@@H](C)c2ccc(-c3ccc(F)cc3F)cc2)C(=O)O1` (stereo partly drawn) [EXAMPLE 213, 3-((1S)-1-(2′,4′-difluorobiphenyl-4-yl)ethyl)-6-(2-hydroxypropyl)-6-isopropyl-1,3-oxazinan-2-one], the IC50 was under 100 nM. The inhibition at 0.1 µM under setting [2] was determined as 79.1%.

In the case of `CC1(c2ccccc2)CCN(c2nccc(-c3cccc(F)c3)n2)C(=O)O1` (stereo not shown) [EXAMPLE 62, 3-(4-(3-fluorophenyl)pyrimidin-2-yl)-6-methyl-6-phenyl-1,3-oxazinan-2-one], the IC50 was in the range of 100 to 1000 nM and the inhibition at 0.1111 µM was 20.5%.

For `COc1ccc([C@H](C)N2CCC(C)(c3ccccc3)OC2=O)cc1` (stereo partly drawn) [EXAMPLE 85, 3-((S)-1-(4-methoxyphenyl)ethyl)-6-methyl-6-phenyl-1,3-oxazinan-2-one], the IC50 is under 100 nM and the inhibition at 0.1111 µM is 102%.

Consider `CCOC(=O)COc1cccc([C@H](C)N2CCC(C)(c3ccccc3)OC2=O)c1` (stereo partly drawn) [EXAMPLE 91, ethyl 2-(3-((1S)-1-(6-methyl-2-oxo-6-phenyl-1,3-oxazinan-3-yl)ethyl)phenoxy)acetate], for which the half-maximal inhibitory concentration (IC50) is 100 to 1000 nM and the inhibition at 0.1111 µM amounted to 39.8%.

In turn, `C[C@@H](c1ccc(Cl)cc1)N1CC[C@](CC(C)(C)O)(c2ccccc2)OC1=O` [EXAMPLE 402, (S)-3-((S)-1-(4-chlorophenyl)ethyl)-6-(2-hydroxy-2-methylpropyl)-6-phenyl-1,3-oxazinan-2-one] had an IC50 of under 100 nM. In addition, under setting [1], the inhibition at 0.1 µM amounted to 96.8%.

As for `C=CCC1(c2ccccc2)CCN(c2cccc(Br)c2)C(=O)O1` (stereo not shown) [EXAMPLE 63, 6-allyl-3-(3-bromophenyl)-6-phenyl-1,3-oxazinan-2-one], the IC50 was under 100 nM and the inhibition at 0.1111 µM is 59%.

`C[C@@H](c1ccc(Br)cc1)N1CC[C@](CC(=O)CO)(c2ccc(F)cc2)OC1=O` [EXAMPLE 527, (S)-3-((S)-1-(4-bromophenyl)ethyl)-6-(4-fluorophenyl)-6-(3-hydroxy-2-oxopropyl)-1,3-oxazinan-2-one] returned an IC50 of under 100 nM. The inhibition at 0.1 µM under setting [1] came to 89.7%.

For `COCc1ccc([C@H](C)N2CC[C@](CCCO)(c3ccccc3)OC2=O)cc1` [EXAMPLE 199, (R)-6-(3-hydroxypropyl)-3-((S)-1-(4-(methoxymethyl)phenyl)ethyl)-6-phenyl-1,3-oxazinan-2-one], the IC50 is under 100 nM. Further, the inhibition at 0.1 µM under setting [3] came to 90.3%.
